# Experimental data: patent US20110046079A1, “Use of Proton Pump Inhibitors as Drug Delivery Adjuvants” (priority 2008, published 2011)
# Key:
# rat gastric corpus = format: in vitro ADME; details: omeprazole-treated vs control
# Description: The numbers provided hereinbelow (Table 6) represent the transepithelial diffusion (mucosal to serosal) of radiolabeled bradykinin. […] It includes only intact bradykinin.
# Two data sets from two experiments are provided. These are bradykinin fluxes in picomoles/min/cm^2. One tissue was treated only with DMSO (vehicle control). […] The other tissue (paired pieces of rat gastric corpus) is treated with omeprazole in DMSO. […] The bradykinin leak in controls is likely due to ‘experimental artifact’—in this case mechanical damage of the tissue in handling plus incubation. The increase in flux (leak) of bradykinin seen with DMSO may not be a function of the DMSO at all, but instead simply be a result of tissue ‘breakdown’ over time due to the tissue's very finite lifespan once out of the animal.
# [1] = tested on: rat gastric corpus mucosa; assay: Transepithelial flux of 14C-labeled probes (mannitol, sucrose, polyethylene glycol) before and after PPI; details: for % Increase in Flux of 14C-[D]-mannitol: 200 μM PPI
# Description: In each experiment, one adult male Sprague Dawley rat was sacrificed by decapitation. The stomach was removed, flushed, and stripped of its outer serosal membrane, while being frequently moistened with chilled, unbuffered saline. Two pieces of corpus mucosa were mounted in modified Ussing chambers, with exposed tissue surface area of 1.13 cm^2. Chambers were connected to gas-lift reservoirs, with a fluid volume of 17 mL per hemichamber. The mucosal hemichamber was filled with unbuffered saline (with 17 mM glucose) and kept aerated and perfused with 100% O2 at 37° C. […] Water-jacketed reservoirs maintained chamber saline at 37° C.
# KRB was adjusted to a pH of 7.3-7.4.
# Unbuffered saline was gassed with 100% O2 and was used to bathe the mucosal side of the gastric mucosa.
# Approximately 30 minutes after tissues were mounted in Ussing chambers, dibutyrl cyclic AMP (dB-cAMP) (Sigma, St. Louis, Mo.) was added to the serosal sides of both chambers to a concentration of 1 mM in order to stimulate acid output by the tissue.
# Three experiments were performed with each PPI, examining gastric permeability to ^14C-mannitol.
# Three experiments were performed at each omeprazole concentration.
# patients = details: Wilde et al. (1994); cited from earlier work
# healthy controls = assay: Sucrose leak test before and after five days of omeprazole or famotidine; format: in vivo, human
# Description: An 8 hour overnight urine sample was collected in a container with 5 ml of 10% thymol in isopropanol as antimicrobial preservative. A courier service picked up urine containers at the patient's home and delivered them to the research laboratory. Total urine volume and refractive index were measured and recorded. […] This amount of sucrose equates to the amount of sucrose which leaked from the upper GI lumen.
# H-2 blockers such as PEPCID® (famotidine) also cause a GI leak. The instant study was first performed with 20 subjects, all healthy controls. Randomly 10 were put on PPIs (20 mg of omeprazole), 10 on H-2 blockers (40 mg of famotidine). These amounts are standard for acid suppression therapy. […] They were given doses of these drugs in the morning for five days. A sucrose leak test was done the night of the fifth and last day.
# Therefore, a second H-2 blocker study was performed looking at leak in an n=5 group but doing evening doses of famotidine and maintaining the other aspects of the above study, with the post H-2 blocker leak test performed again the night of the 5th dose, but now only with a 4-6 hours after the 5th and final dose.
# [2] = tested on: rat gastric corpus mucosa; assay: Acid secretion (mucosal fluid pH) of dB-cAMP stimulated tissue in Ussing chambers; details: Rattus norvegicus; 25 μM omeprazole, plateau; read-out: inhibition of acid secretion (no further decrease in mucosal fluid pH)
# Description: (§1) Water-jacketed reservoirs maintained chamber saline at 37° C.
# (§2) In order to confirm stimulation of acid secretion by secretagogue addition and to verify the efficacy of the PPI, mucosal fluid compartment pH was recorded at intervals throughout the experiment with a manual electrode (Denver Instruments, Denver, Colo.). Ag/AgCl voltage and current electrodes were used to measure PD (potential difference) and ISC (short circuit current) approximately every five minutes for the duration of the experiment, as previously described (Hameed et al. (2004) Dig. Dis. Sci., 49:1381-1386), using two single-channel current/voltage clamps (McGrath Research and Technology). Ohm's Law was used to calculate transepithelial electrical resistance across the tissue.
# Mucosal and serosal saline pH measurements were taken at approximately five minute intervals using a manual electrode (Denver Instruments) to ensure that the tissue was secreting acid. Mucosal pH readings were also taken before and after the addition of omeprazole to document the action of omeprazole on inhibiting acid secretion. Tissue viability was confirmed at the end of each experiment by tissue exposure to 10 mM amiloride in the mucosal fluid compartment in order to inhibit short circuit current.
# [3] = Kiley et al. (2007); cited from earlier work
# [4] = tested on: rat gastric corpus mucosa; assay: Transepithelial drug flux studies (3H-digoxin, 14C-phenytoin, mucosal to serosal) before and after omeprazole or DMSO; format: in vitro ADME; details: for Post-Omeprazole Flux Value: after 200 μM omeprazole; for Post-Omeprazole Flux Value / Post-DMSO Flux Value: corrected by TLC; for Pre-Omeprazole Flux Value: before 200 μM omeprazole; for % Increase in Flux After DMSO / Post-DMSO Flux Value / Pre-DMSO Flux Value: vehicle control tissue; for Pre-DMSO Flux Value: mean ± SEM
# Description: Sprague Dawley male rats weighing approximately 400 grams were sacrificed by decapitation and the stomach was quickly removed, cut along the greater curvature, and flushed of luminal contents. The serosal membrane was then stripped from the corpus region and two equal sized pieces of corpus mucosa were mounted in two separate Ussing chambers with exposed tissue areas of 1.13 cm^2. Chambers were connected to 15 mL gas-lift reservoirs filled with un-buffered saline aerated with 100% O2 and bicarbonate-buffered saline aerated with 95% O2/5% CO2 on the mucosal and serosal sides, respectively. Saline temperature was held constant at 37° C. by a jacketed water bath surrounding the reservoirs. 30 minutes at 37° C. was allowed for tissue equilibration. In paired experiments, one tissue served as (vehicle) ‘control’, and the other as omeprazole-treated ‘experimental’.
# After 30 minutes of tissue equilibration time in Ussing chambers, dibutyrl cyclic AMP (dBcAMP) (Sigma) was added to a final concentration of 1 mM to the serosal fluid chambers to stimulate acid secretion. […] The addition of the isotope marked the beginning of the flux period. 150 μL or 250 μL samples were taken from the serosal fluid compartment (opposite from which the isotope was added) for liquid scintillation counting (LSC). Samples were initially taken at 30 minute intervals for 90 minutes for the ^14C-phenytoin flux or at 15 minute intervals for 75 minutes for the ^3H-digoxin flux to establish the basal permeability rate (ρmoles/min/cm^2) across the tissue. 200 μM omeprazole (Sigma) (in DMSO) was then added to the mucosal and serosal sides of one chamber and an equivalent amount of DMSO (Sigma) was also added to both sides of the control chamber. Another series of serosal fluid samples were taken for LSC at 15 or 30 minute intervals for the remaining 60 minutes of ^3H-digoxin or ^14C-phenytoin flux experiments, respectfully, to determine flux rate of the radiolabeled drugs after omeprazole addition. In all cases of fluid sampling for liquid scintillation counting, an equal amount of fresh buffered saline was added back to the serosal side to prevent hydrostatic gradients from developing across the tissue. The flux of each isotope (ρmole/min/cm^2) was determined by calculating the linear regression slope of the graph of cpm versus time, and converting cpm to picomoles after determining the specific activity of the drug in the mucosal fluid.
# To observe if the omeprazole-induced leak allows for permeation of certain small molecule drugs, ^3H-digoxin was added to the mucosal fluid compartment and saline samples were taken at 15 minute intervals from the serosal fluid compartments for a 135-minute flux period. Omeprazole and/or DMSO were added to their respective tissues 75 minutes after the addition of the isotope. Radioactivity present in the serosal fluid compartment was measured as a function of time before and after the addition of omeprazole or DMSO.
# [5] = tested on: rat gastric corpus mucosa; format: in vitro ADME
# Description: Additional saline samples were taken from the mucosal and serosal fluid compartments one minute before the addition of omeprazole/DMSO and at the end of the entire flux period to allow for thin-layer chromatography (TLC) analysis of radioactivity that crossed the tissue. TLC was performed to account for the potential contribution of radiolabeled metabolites to total radioactivity crossing the epithelial barrier, in the event of drugs entering gastric epithelial cells and metabolites being effluxed. Saline samples were taken from both surfaces of the tissue to determine possible degradation of the molecule upon exposure to the mucosal surface of the tissue as well as to analyze the chemical nature of the radioactivity that crossed the tissue. […] TLC was performed on silica gel 60 plates (Kodak) by spotting very small amounts of the concentrated sample. Plates were then placed in a sandwich tank and a variety of mobile phases were employed, including butanol/acetic acid/water (120:30:50), isopropanol/water (120:30), and ethyl acetate/methanol/water (81:11:8).
# [6] = tested on: rat gastric corpus mucosa; assay: Transepithelial electrical resistance and short circuit current in Ussing chambers; details: 0.05 mM digoxin, 0.1 mM phenytoin
# Description: as §1, §2
# Electrical parameters were monitored throughout the duration of the experiment. Tissues were maintained under open circuit conditions. […] Tissue voltage (potential difference), short circuit current, and transepithelial resistance were recorded approximately every five minutes for the duration of the experiment, by passing a one-second current pulse equal to biological current to bring the potential difference to zero using a current/voltage clamp (McGrath Research & Technology). Transepithelial resistance was calculated by dividing open circuit potential difference by short circuit current (Ohm's law).
# [7] = human, 50 micromolar
# From the text: A portion of this flux is due to damage of the gastric tissue preparation during mounting in the Ussing chambers. To correct for flux due to edge damage, the flux rate was subtracted prior to omeprazole addition from the flux rate after omeprazole addition. However, the added issue of decline in cell viability over the course of any experiment, and its contribution to overall leak, still remains (this is generally observed in the modest decline in transepithelial electrical resistance over experimental running time).
smiles,measurement,setting,value
"CC[C@H](C)[C@@H]1NC(=O)[C@H](Cc2ccc(O)cc2)NC(=O)[C@@H](N)CSSC[C@@H](C(=O)N2CCC[C@H]2C(=O)N[C@@H](CC(C)C)C(=O)NCC(N)=O)NC(=O)[C@H](CC(N)=O)NC(=O)[C@H](CCC(N)=O)NC1=O [oxytocin, Cys-Tyr-Iso-Gln-Asn-Cys-Pro-Leu-Gly]",leak with omeprazole over control,rat gastric corpus,not observed
COc1ccc2[nH]c([S+]([O-])Cc3ncc(C)c(OC)c3C)nc2c1 (stereo not shown) [omeprazole],% Increase in Flux of 14C-[D]-mannitol,[1],68.72%
same,% Increase in Flux of 14C-[D]-mannitol,[1]; listed as Omeprazole,68.72 +/− 8.32%
same,effect on transepithelial permeability at low concentrations,"[1]; 1, 5, or 10 μM omeprazole, 14C-mannitol",no significant effect
same,concentration at which marked transepithelial permeability increase first occurred,"[1]; 14C-mannitol, 1-200 μM tested, plateau at 100 and 200 μM",25 µM
same,patients with diarrhea,patients,1-3%
same,patients with headache,patients,0.5-2.4%
same,patients with nausea,patients,0.9-2%
same,pre-med sucrose leak,"healthy controls; baseline before medication, n=10 per group, SEM",42 mg
same,post med sucrose leak,"healthy controls; morning doses for five days (20 mg omeprazole or 40 mg famotidine), test night of fifth day, n=10",212 mg
same,inhibition at 25 µM,[2],100%
same,increase of serum levels of digoxin by omeprazole,[3],more than 350%
O=C1NC(=O)C(c2ccccc2)(c2ccccc2)N1 [phenytoin],% Increase in Flux After Omeprazole,"[4]; 0.1 mM probe, 200 μM omeprazole, listed as 14C-Phenytoin",54.4% ± 7.7%
same,% Increase in Flux After Omeprazole,"[4]; 0.1 mM probe, 200 μM omeprazole, listed as 14C-phenytoin",54.4%
same,Post-Omeprazole Flux Value,[4]; 0.1 mM probe,119.4 ± 12.9 ρmole/min/cm^2
same,Pre-Omeprazole Flux Value,"[4]; 0.1 mM probe, 3 experiments",78.3 ± 11.4 ρmole/min/cm^2
same,% Increase in Flux After DMSO,[4]; 0.1 mM probe,69.3%
same,Post-DMSO Flux Value,[4]; 0.1 mM probe,120.0 ± 14.7 ρmole/min/cm^2
same,% Increase in Flux After DMSO,"[4]; 0.1 mM probe, listed as 14C-Phenytoin",69.3% ± 13.9%
same,Pre-DMSO Flux Value,"[4]; 0.1 mM probe, 3 experiments",71.9 ± 9.8 ρmole/min/cm^2
same,metabolic breakdown on crossing the gastric mucosa,[5],no metabolic breakdown
same,co-migration of serosal radioactivity with pure phenytoin standard,"[5]; male, Sprague Dawley, rat, 0.1 mM",100%
same,effect of the probe drug itself on transepithelial electrical resistance or short circuit current,[6],not themselves exerting an effect
C[C@H]1O[C@@H](O[C@H]2[C@@H](O)C[C@H](O[C@H]3[C@@H](O)C[C@H](O[C@H]4CC[C@@]5(C)[C@H](CC[C@@H]6[C@@H]5C[C@@H](O)[C@]5(C)[C@@H](C7=CC(=O)OC7)CC[C@]65O)C4)O[C@@H]3C)O[C@@H]2C)C[C@H](O)[C@@H]1O [digoxin],% Increase in Flux After Omeprazole,"[4]; 0.05 mM probe, 200 μM omeprazole, P<0.03 vs DMSO",82.2%
same,% Increase in Flux After Omeprazole,"[4]; 0.05 mM probe, 200 μM omeprazole, P<0.03 vs DMSO, listed as 3H-Digoxin",82.2% ± 7.7%
same,Post-Omeprazole Flux Value,[4]; 0.05 mM probe,9.4 ± 0.6 ρmole/min/cm^2
same,Pre-Omeprazole Flux Value,"[4]; 0.05 mM probe, 4 experiments",5.1 ± 0.2 ρmole/min/cm^2
same,% Increase in Flux After DMSO,[4]; 0.05 mM probe,50.9%
same,Post-DMSO Flux Value,[4]; 0.05 mM probe,7.2 ± 1.5 ρmole/min/cm^2
same,% Increase in Flux After DMSO,"[4]; 0.05 mM probe, listed as 3H-Digoxin",50.9% ± 7.0%
same,Pre-DMSO Flux Value,"[4]; 0.05 mM probe, 4 experiments",4.8 ± 1.0 ρmole/min/cm^2
same,increase in flux of total radioactivity (tritium) after omeprazole addition,"[4]; 200 μM omeprazole, not corrected by TLC, SEM",84%
same,"increase in flux of total radioactivity (tritium), vehicle control","[4]; DMSO, not corrected by TLC",50%
same,final flux of true 3H-digoxin,"[4]; in the presence of omeprazole, 0.05 mM digoxin",approximately 9 picomoles/min/cm^2
same,final omeprazole-dependent 3H-digoxin flux,"[4]; omeprazole flux minus DMSO flux, 4 paired experiments, SEM",1.8±0.4 picomoles/min/cm^2
same,total gastric corpus-wide flux,[7],900 picomoles/minute
same,effect of the probe drug itself on transepithelial electrical resistance or short circuit current,[6],not themselves exerting an effect
